# Columns and labels:
# [1] = system: chronic rosacea; assay: Example 2: treatment of a patient with chronic rosacea; format: in vivo, human; conditions: person, topical
# Source text: A person suffered from chronic rosacea. Medical practitioner proscribed regular use of a steroidal cortisone anti-inflammatory cream. […] Patient was concerned about side effects of long term cortisone application. […] Improvement however could not be maintained even with regular treatment several times weekly.
# [2] = Ozone output of ozonized formulations tested with a commercial ozone sensor; format: physicochemical; conditions: added to seaweed-containing ozonized formulations
# Description: Cholecalciferol, vitamin D3, also known as the sunshine vitamin, aids in tissue regeneration and healing. […] For this reason it was determined that a certain amount of vitamin D3 increases the effectiveness of formulations containing seaweeds, especially those containing callophycus serratus.
# The mask is used after the water broth cleansing and activating serum activation steps. As for the serum the inventor has observed a synergistic efficacy by using the combination of treatments. Also as for the serum the exact mechanism is yet to be understood, but the mask provides yet a third matrix for the preparation, storage and application of the active ingredients. As for the formulations previously described the mask is prepared from a selection of ingredients form each of the defined categories of teas, Algaes and seaweeds, herbal plant extracts and oils, flower extracts, fruit extracts, vegetable extracts, butters and oils, and finally other additives as indicated in the formulation lists below. […] The mask is prepared from freeze dried and powdered extracts of the indicated ingredients. The water broth described above is also an ingredient in the mask. The other ingredients are added as preservatives, solvents, and viscosity control agents and are not part of the active ingredients, but rather are a delivery system. […]
# [3] = system: basal cell carcinoma and pre-cancerous inflammation; assay: Example 1: treatment of a patient with basal cell carcinoma and pre-cancerous inflammation; format: in vivo, human
# Source text: The treatment procedure comprises application of each of the above described formulations in the order of cleansing with the water broth, activating with both the water broth and the activating serum, treatment with the mask formulation that entraps active ingredients against the affected skin and finally sealing and protecting the treated area with the cream. The affected area is first washed using the water broth. Activating serum is then applied to the skin. The water broth solution is put into the dispensing cup of aerosol generating device such as sold under the brand name Dermoxyzone Nebulizing Nanoparticle Infuser™, which infuses the nanoparticle sizes of the ozonated water broth into the epidermal layer. Absorption is optimized due to the activating serum's ability to pull moisture into the epidermis in greater amounts than could be absorbed without application of the activating serum. The Gel is not completely removed before applying the mask. The gel is wiped down with a cotton pad, leaving a residue on the skin. The mask is then applied over the residual gel covered area of the skin. The mixing serum and the powdered mask base are blended in a ratio of one to one, by volume, to form the mask just prior to use. For the treatment of one cheek for example, one tablespoon each of the powder and mixing serum are typically used. […]
compound,measurement,setting,value
"C[C@]12CCC(=O)C=C1CC[C@@H]1[C@@H]2C(=O)C[C@@]2(C)[C@H]1CC[C@]2(O)C(=O)CO [1% cortisone, cortisone]",effect on rosacea inflammation,[1],controlled most inflammation outbreaks
C=C1CC[C@H](O)C/C1=C/C=C1\CCC[C@]2(C)[C@@H]([C@H](C)CCCC(C)C)CC[C@@H]12 [Cholecalciferol],ozone output / amount of ozone released from ozonated formulations,[2],increased the ozone output
same,ozone output / amount of ozone released from ozonated formulations,[2]; listed as cholecalciferol,increased significantly
N#N [liquid nitrogen],adverse effect of treatment,[3]; conventional treatment by medical practitioner,scarring
same,outcome of cancer / cancerous tissue,[3]; person,cancerous tissue reappeared within a few months of treatment

# — US20080199489A1, “SKIN TREATMENT FORMULATIONS AND METHOD” (priority 2007, published 2008)
